Laboratory results reported in ChEMBL document CHEMBL3885861, “Open TG-GATES”.

Species: Rattus norvegicus
Experiment: Open TG-GATES - Regimen: Daily Repeat
Assay type: toxicity, organism-based, Sprague-Dawley
Set-up: regimen Daily Repeat, gender Male, age 6 weeks
Conditions: in vivo, po, route gavage; for APTT / Bas / Eos / Fbg / Hb / Ht / Lym / MCH / MCHC / MCV / Mono / Neu / PT / Plat / RBC / Ret / WBC: tissue Blood; for LIVER: tissue Liver; for A/G / ALP / ALT / AST / BUN / CRE / Ca / Cl / DBIL / GLC / IP / K / LDH / Na / PL / RALB / TBIL / TC / TG / TP / gamma-GTP: tissue Plasma
[1] = 20 mg/kg, 72 h, dose level Middle, time 3 day
[2] = 20 mg/kg, […], dose level Middle, time 7 day
[3] = 20 mg/kg, […], dose level Middle, time 14 day
[4] = 20 mg/kg, […], dose level Middle, time 28 day
[5] = 60 mg/kg, 72 h, dose level High, time 3 day
[6] = 60 mg/kg, […], dose level High, time 7 day
[7] = 60 mg/kg, […], dose level High, time 14 day
[8] = 60 mg/kg, […], dose level High, time 28 day

Q: What does the source list for `O=[N+]([O-])c1ccc(O)c([N+](=O)[O-])c1` [2,4-DINITROPHENOL]?
A: TERMINAL_BW [1]: 243.1 g; APTT [1]: 15.4 s; Bas [1]: 0%; Eos [1]: 1.2%; Fbg [1]: 283.4 mg/dL; Hb [1]: 13.6 g/dL; Ht [1]: 40.4%; Lym [1]: 77%; MCH [1]: 22.4 pg; MCHC [1]: 33.7%; MCV [1]: 66.4 fL; Mono [1]: 5%; Neu [1]: 17%; PT [1]: 11.4 s; Plat [1]: 131.6 x10_4/uL; RBC [1]: 609.2 x10_4/ul; Ret [1]: 7.3%; WBC [1]: 124.2 x10_2/uL; LIVER [1]: 12.1 g; A/G [1]: 2.4; ALP [1]: 1368.6 IU/L; ALT [1]: 36.6 IU/L; AST [1]: 61.6 IU/L; BUN [1]: 15.2 mg/dL; CRE [1]: 0.4 mg/dL; Ca [1]: 11.4 mg/dL; Cl [1]: 104.2 meq/L; DBIL [1]: 0.01 mg/dL; GLC [1]: 182.6 mg/dL; IP [1]: 7.3 mg/dL; K [1]: 4.8 meq/L; LDH [1]: 128.4 IU/L; Na [1]: 138.2 meq/L; PL [1]: 165.4 mg/dL; RALB [1]: 3.9 g/dL; TBIL [1]: 0.022 mg/dL; TC [1]: 93 mg/dL; TG [1]: 134.6 mg/dL; TP [1]: 5.6 g/dL; gamma-GTP [1]: 0.2 IU/L; TERMINAL_BW [2]: 277.1 g; TERMINAL_BW [3]: 351 g; TERMINAL_BW [4]: 428.8 g; APTT [2]: 16.2 s; Bas [2]: 0%; Eos [2]: 0.8%; Fbg [2]: 259.6 mg/dL; Hb [2]: 13.7 g/dL; Ht [2]: 40.8%; Lym [2]: 71.4%; MCH [2]: 21.3 pg; MCHC [2]: 33.6%; MCV [2]: 63.3 fL; Mono [2]: 9%; Neu [2]: 19%; PT [2]: 11.8 s; Plat [2]: 128 x10_4/uL; RBC [2]: 644.2 x10_4/ul; Ret [2]: 5.5%; WBC [2]: 102 x10_2/uL; APTT [3]: 16.3 s; Bas [3]: 0%; Eos [3]: 0.6%; Fbg [3]: 267 mg/dL; Hb [3]: 13.9 g/dL; Ht [3]: 41.3%; Lym [3]: 77.6%; MCH [3]: 21 pg; MCHC [3]: 33.8%; MCV [3]: 62.2 fL; Mono [3]: 6%; Neu [3]: 15.8%; PT [3]: 11.8 s; Plat [3]: 128 x10_4/uL; RBC [3]: 663.8 x10_4/ul; Ret [3]: 4.4%; WBC [3]: 125.8 x10_2/uL; APTT [4]: 17.1 s; Bas [4]: 0%; Eos [4]: 1%; Fbg [4]: 281.8 mg/dL; Hb [4]: 14.9 g/dL; Ht [4]: 44%; Lym [4]: 82.4%; MCH [4]: 20 pg; MCHC [4]: 33.8%; MCV [4]: 59.1 fL; Mono [4]: 5%; Neu [4]: 11.6%; PT [4]: 12 s; Plat [4]: 122 x10_4/uL; RBC [4]: 744.2 x10_4/ul; Ret [4]: 2.6%; WBC [4]: 118.2 x10_2/uL; LIVER [2]: 13.6 g; LIVER [3]: 17.5 g; LIVER [4]: 19.1 g; A/G [2]: 2.3; ALP [2]: 1592.8 IU/L; ALT [2]: 33.4 IU/L; AST [2]: 63 IU/L; BUN [2]: 18.4 mg/dL; CRE [2]: 0.4 mg/dL; Ca [2]: 11.4 mg/dL; Cl [2]: 105.4 meq/L; DBIL [2]: 0.012 mg/dL; GLC [2]: 182 mg/dL; IP [2]: 7.2 mg/dL; K [2]: 4.8 meq/L; LDH [2]: 111.6 IU/L; Na [2]: 139.4 meq/L; PL [2]: 149.6 mg/dL; RALB [2]: 3.9 g/dL; TBIL [2]: 0.02 mg/dL; TC [2]: 77.4 mg/dL; TG [2]: 148.2 mg/dL; TP [2]: 5.6 g/dL; gamma-GTP [2]: 0.4 IU/L; A/G [3]: 2.1; ALP [3]: 983.2 IU/L; ALT [3]: 33.4 IU/L; AST [3]: 64.2 IU/L; BUN [3]: 19 mg/dL; CRE [3]: 0.3 mg/dL; Ca [3]: 11.8 mg/dL; Cl [3]: 104.4 meq/L; DBIL [3]: 0.014 mg/dL; GLC [3]: 180.4 mg/dL; IP [3]: 6.9 mg/dL; K [3]: 4.5 meq/L; LDH [3]: 99.8 IU/L; Na [3]: 137 meq/L; PL [3]: 151.2 mg/dL; RALB [3]: 4 g/dL; TBIL [3]: 0.022 mg/dL; TC [3]: 74.2 mg/dL; TG [3]: 190.4 mg/dL; TP [3]: 6 g/dL; gamma-GTP [3]: 0 IU/L; A/G [4]: 1.9; ALP [4]: 871.8 IU/L; ALT [4]: 31.8 IU/L; AST [4]: 63.4 IU/L; BUN [4]: 18.2 mg/dL; CRE [4]: 0.5 mg/dL; Ca [4]: 11.2 mg/dL; Cl [4]: 104.6 meq/L; DBIL [4]: 0.012 mg/dL; GLC [4]: 180.8 mg/dL; IP [4]: 6.6 mg/dL; K [4]: 4.3 meq/L; LDH [4]: 117.2 IU/L; Na [4]: 141 meq/L; PL [4]: 133.4 mg/dL; RALB [4]: 4.1 g/dL; TBIL [4]: 0.016 mg/dL; TC [4]: 67.6 mg/dL; TG [4]: 155.6 mg/dL; TP [4]: 6.2 g/dL; gamma-GTP [4]: 0.4 IU/L; TERMINAL_BW [5]: 245.9 g; APTT [5]: 15.9 s; Bas [5]: 0%; Eos [5]: 1%; Fbg [5]: 275.4 mg/dL; Hb [5]: 13.3 g/dL; Ht [5]: 39.2%; Lym [5]: 74%; MCH [5]: 22 pg; MCHC [5]: 33.9%; MCV [5]: 64.9 fL; Mono [5]: 7%; Neu [5]: 18.4%; PT [5]: 11.7 s; Plat [5]: 139 x10_4/uL; RBC [5]: 604.8 x10_4/ul; Ret [5]: 9.7%; WBC [5]: 124 x10_2/uL; LIVER [5]: 12.8 g; A/G [5]: 2.2; ALP [5]: 1454.2 IU/L; ALT [5]: 31.8 IU/L; AST [5]: 66.2 IU/L; BUN [5]: 17.8 mg/dL; CRE [5]: 0.4 mg/dL; Ca [5]: 11.4 mg/dL; Cl [5]: 104.6 meq/L; DBIL [5]: 0.014 mg/dL; GLC [5]: 169.2 mg/dL; IP [5]: 6.6 mg/dL; K [5]: 5 meq/L; LDH [5]: 98.2 IU/L; Na [5]: 137.8 meq/L; PL [5]: 155.2 mg/dL; RALB [5]: 3.8 g/dL; TBIL [5]: 0.02 mg/dL; TC [5]: 82 mg/dL; TG [5]: 125 mg/dL; TP [5]: 5.6 g/dL; gamma-GTP [5]: 0.2 IU/L; TERMINAL_BW [6]: 262.8 g; TERMINAL_BW [7]: 327.9 g; TERMINAL_BW [8]: 396.2 g; APTT [6]: 16.6 s; Bas [6]: 0%; Eos [6]: 1.4%; Fbg [6]: 263.8 mg/dL; Hb [6]: 14.2 g/dL; Ht [6]: 41.9%; Lym [6]: 78.4%; MCH [6]: 21.5 pg; MCHC [6]: 33.9%; MCV [6]: 63.4 fL; Mono [6]: 6.4%; Neu [6]: 14.6%; PT [6]: 11.9 s; Plat [6]: 128.6 x10_4/uL; RBC [6]: 662.2 x10_4/ul; Ret [6]: 6.1%; WBC [6]: 126.8 x10_2/uL; APTT [7]: 16.3 s; Bas [7]: 0%; Eos [7]: 0.8%; Fbg [7]: 263.8 mg/dL; Hb [7]: 14.3 g/dL; Ht [7]: 42.2%; Lym [7]: 74.8%; MCH [7]: 21.6 pg; MCHC [7]: 33.9%; MCV [7]: 63.5 fL; Mono [7]: 10.4%; Neu [7]: 14.2%; PT [7]: 12.2 s; Plat [7]: 124 x10_4/uL; RBC [7]: 665.2 x10_4/ul; Ret [7]: 4.2%; WBC [7]: 114.6 x10_2/uL; APTT [8]: 16.4 s; Bas [8]: 0%; Eos [8]: 1%; Fbg [8]: 294.4 mg/dL; Hb [8]: 15.6 g/dL; Ht [8]: 46.4%; Lym [8]: 73.4%; MCH [8]: 20.5 pg; MCHC [8]: 33.6%; MCV [8]: 60.9 fL; Mono [8]: 6.6%; Neu [8]: 18.8%; PT [8]: 12 s; Plat [8]: 105.6 x10_4/uL; RBC [8]: 763.2 x10_4/ul; Ret [8]: 2.9%; WBC [8]: 117.4 x10_2/uL; LIVER [6]: 13.7 g; LIVER [7]: 17.8 g; LIVER [8]: 21.6 g; A/G [6]: 2.3; ALP [6]: 1317.4 IU/L; ALT [6]: 39.4 IU/L; AST [6]: 72 IU/L; BUN [6]: 17 mg/dL; CRE [6]: 0.3 mg/dL; Ca [6]: 11.5 mg/dL; Cl [6]: 104.2 meq/L; DBIL [6]: 0.014 mg/dL; GLC [6]: 167.8 mg/dL; IP [6]: 7.2 mg/dL; K [6]: 4.8 meq/L; LDH [6]: 116.8 IU/L; Na [6]: 140.2 meq/L; PL [6]: 150.4 mg/dL; RALB [6]: 4 g/dL; TBIL [6]: 0.016 mg/dL; TC [6]: 77.6 mg/dL; TG [6]: 115 mg/dL; TP [6]: 5.7 g/dL; gamma-GTP [6]: 0.8 IU/L; A/G [7]: 2.2; ALP [7]: 1140.6 IU/L; ALT [7]: 38 IU/L; AST [7]: 79.2 IU/L; BUN [7]: 18.6 mg/dL; CRE [7]: 0.4 mg/dL; Ca [7]: 11.8 mg/dL; Cl [7]: 104.6 meq/L; DBIL [7]: 0.014 mg/dL; GLC [7]: 167.8 mg/dL; IP [7]: 6 mg/dL; K [7]: 4.1 meq/L; LDH [7]: 134.2 IU/L; Na [7]: 138 meq/L; PL [7]: 151.2 mg/dL; RALB [7]: 4.1 g/dL; TBIL [7]: 0.02 mg/dL; TC [7]: 67.4 mg/dL; TG [7]: 208.6 mg/dL; TP [7]: 6 g/dL; gamma-GTP [7]: 0 IU/L; A/G [8]: 1.9; ALP [8]: 925 IU/L; ALT [8]: 45.6 IU/L; AST [8]: 93.8 IU/L; BUN [8]: 20.8 mg/dL; CRE [8]: 0.5 mg/dL; Ca [8]: 11.4 mg/dL; Cl [8]: 105 meq/L; DBIL [8]: 0.018 mg/dL; GLC [8]: 167.6 mg/dL; IP [8]: 5 mg/dL; K [8]: 4.2 meq/L; LDH [8]: 160 IU/L; Na [8]: 140.2 meq/L; PL [8]: 144.4 mg/dL; RALB [8]: 4.1 g/dL; TBIL [8]: 0.026 mg/dL; TC [8]: 69 mg/dL; TG [8]: 177.8 mg/dL; TP [8]: 6.3 g/dL; gamma-GTP [8]: 0.6 IU/L
